From patent US20220128542A1, “TREATMENT EFFICIENCY EVALUATION” (TX MEDIC AB, priority 2019, published 2022)

Tested on: brain of rats subjected to severe traumatic brain injury (sTBI)
Assay: Ingenuity pathway analysis of differentially regulated genes after sTBI (canonical pathways, diseases and molecular functions; Example 4)
Parameters: species or system rat
Details: 2 days after TBI
Description: Pathway analysis of the differentially regulated genes was carried out using the Ingenuity pathway analysis package. The analysis was performed with special reference to pathways and molecular processes and diseases associated with neurodegenerative disease, including dementia, Alzheimer's disease, ALS, TBI and stroke, and with scarring and fibrosis, including glaucoma and normal pressure hydrocephalus (NPH) after subarachnoid haemorrhage.

[1] = TBI + 1 mg/kg LMW-DS relative to control

Substance: sodium salt of dextran sulfate [LMW-DS]
- Abdominal cancer (disease/function), z score (TBI + 1 mg/kg LMW-DS): −1.538
- Abdominal carcinoma (disease/function), z score (TBI + 1 mg/kg LMW-DS): −1.715
- Abdominal neoplasm (disease/function), z score (TBI + 1 mg/kg LMW-DS): −0.154
- Activation of blood cells (disease/function), z score (TBI + 1 mg/kg LMW-DS): 0.086
- Activation of cells (disease/function), z score (TBI + 1 mg/kg LMW-DS): 0.836
- Activation of leukocytes (disease/function), z score (TBI + 1 mg/kg LMW-DS): 0.086
- Activation of lymphocytes (disease/function), z score (TBI + 1 mg/kg LMW-DS): −1.158
- Adhesion of tumor cell lines (disease/function), z score (TBI + 1 mg/kg LMW-DS): 2.074
- Apoptosis (disease/function), z score (TBI + 1 mg/kg LMW-DS): −0.337
- Apoptosis of muscle cells (disease/function), z score (TBI + 1 mg/kg LMW-DS): 0.041
- Behavior (disease/function), z score (TBI + 1 mg/kg LMW-DS): 1.334
- Binding of tumor cell lines (disease/function), z score (TBI + 1 mg/kg LMW-DS): 2.397
- Carcinoma (disease/function), z score (TBI + 1 mg/kg LMW-DS): −0.127
- Cell death (disease/function), z score (TBI + 1 mg/kg LMW-DS): −0.793
- Cell death of blood cells (disease/function), z score (TBI + 1 mg/kg LMW-DS): 1.082
- Cell death of immune cells (disease/function), z score (TBI + 1 mg/kg LMW-DS): 1.001
- Cell movement (disease/function), z score (TBI + 1 mg/kg LMW-DS): 1.948
- Cell movement of muscle cells (disease/function), z score (TBI + 1 mg/kg LMW-DS): −0.26
- Cell movement of vascular smooth muscle cells (disease/function), z score (TBI + 1 mg/kg LMW-DS): −0.588
- Cell proliferation of T lymphocytes (disease/function), z score (TBI + 1 mg/kg LMW-DS): −1.097
- Cellular homeostasis (disease/function), z score (TBI + 1 mg/kg LMW-DS): 0.19
- Development of connective tissue cells (disease/function), z score (TBI + 1 mg/kg LMW-DS): −0.332
- Differentiation of bone cells (disease/function), z score (TBI + 1 mg/kg LMW-DS): −0.341
- Differentiation of connective tissue cells (disease/function), z score (TBI + 1 mg/kg LMW-DS): 0.73
- Differentiation of hematopoietic progenitor cells (disease/function), z score (TBI + 1 mg/kg LMW-DS): 0.487
- Differentiation of osteoclasts (disease/function), z score (TBI + 1 mg/kg LMW-DS): −0.223
- Digestive organ tumor (disease/function), z score (TBI + 1 mg/kg LMW-DS): −0.604
- Experimentally-induced arthritis (disease/function), z score (TBI + 1 mg/kg LMW-DS): −0.816
- Extracranial solid tumor (disease/function), z score (TBI + 1 mg/kg LMW-DS): 0.056
- Genital tumor (disease/function), z score (TBI + 1 mg/kg LMW-DS): 0.13
- IL-1 Signaling canonical pathway, effect (TBI + 1 mg/kg LMW-DS): Inhibited
- Incidence of tumor (disease/function), z score (TBI + 1 mg/kg LMW-DS): −1.131
- Inflammation of absolute anatomical region (disease/function), z score (TBI + 1 mg/kg LMW-DS): −1.359
- Inflammation of body cavity (disease/function), z score (TBI + 1 mg/kg LMW-DS): −1.757
- Inflammation of joint (disease/function), z score (TBI + 1 mg/kg LMW-DS): −0.053
- Inflammation of organ (disease/function), z score (TBI + 1 mg/kg LMW-DS): −1.295
- Inflammatory response (disease/function), z score (TBI + 1 mg/kg LMW-DS): 1.159
- Interaction of mononuclear leukocytes (disease/function), z score (TBI + 1 mg/kg LMW-DS): 1.626
- Leukocyte migration (disease/function), z score (TBI + 1 mg/kg LMW-DS): 1.296
- Leukopoiesis (disease/function), z score (TBI + 1 mg/kg LMW-DS): 1.185
- Lymphopoiesis (disease/function), z score (TBI + 1 mg/kg LMW-DS): 0.583
- Malignant solid tumor (disease/function), z score (TBI + 1 mg/kg LMW-DS): −0.562
- Migration of cells (disease/function), z score (TBI + 1 mg/kg LMW-DS): 2.093
- Necrosis (disease/function), z score (TBI + 1 mg/kg LMW-DS): −0.361
- Non-hematologic malignant neoplasm (disease/function), z score (TBI + 1 mg/kg LMW-DS): −0.243
- Osteoarthritis Pathway canonical pathway, effect (TBI + 1 mg/kg LMW-DS): Inhibited
- Pelvic tumor (disease/function), z score (TBI + 1 mg/kg LMW-DS): −0.651
- Proliferation of blood cells (disease/function), z score (TBI + 1 mg/kg LMW-DS): −1.083
- Proliferation of lymphatic system cells (disease/function), z score (TBI + 1 mg/kg LMW-DS): −1.112
- Proliferation of lymphocytes (disease/function), z score (TBI + 1 mg/kg LMW-DS): −0.852
- Quantity of blood cells (disease/function), z score (TBI + 1 mg/kg LMW-DS): −1.479
- Quantity of bone (disease/function), z score (TBI + 1 mg/kg LMW-DS): −1.985
- Quantity of cells (disease/function), z score (TBI + 1 mg/kg LMW-DS): −0.765
- Quantity of connective tissue cells (disease/function), z score (TBI + 1 mg/kg LMW-DS): 0.637
- Quantity of leukocytes (disease/function), z score (TBI + 1 mg/kg LMW-DS): −1.163
- Quantity of lymphatic system cells (disease/function), z score (TBI + 1 mg/kg LMW-DS): −0.701
- Quantity of phagocytes (disease/function), z score (TBI + 1 mg/kg LMW-DS): −2.061
- Rheumatic Disease (disease/function), z score (TBI + 1 mg/kg LMW-DS): −0.053
- Role of NFAT in Regulation of the Immune Response canonical pathway, effect (TBI + 1 mg/kg LMW-DS): Activated
- Solid tumor (disease/function), z score (TBI + 1 mg/kg LMW-DS): −0.186
- Survival of organism (disease/function), z score (TBI + 1 mg/kg LMW-DS): −0.095
- Synthesis of hormone (disease/function), z score (TBI + 1 mg/kg LMW-DS): 0.977
- Thrombus (disease/function), z score (TBI + 1 mg/kg LMW-DS): 1
- Transcription of RNA (disease/function), z score (TBI + 1 mg/kg LMW-DS): 1.519
- Transport of molecule (disease/function), z score (TBI + 1 mg/kg LMW-DS): 2.421
- IL-1 Signaling canonical pathway, z score [1]: −1
- Osteoarthritis Pathway canonical pathway, z score [1]: −1.342
- Role of NFAT in Regulation of the Immune Response canonical pathway, z score [1]: 0.378
- Abdominal cancer (disease/function), z score (TBI + 5 mg/kg LMW-DS): −2.553
- Abdominal carcinoma (disease/function), z score (TBI + 5 mg/kg LMW-DS): −2.631
- Abdominal neoplasm (disease/function), z score (TBI + 5 mg/kg LMW-DS): −0.927
- Adrenomedullin Signaling pathway canonical pathway, effect (TBI + 5 mg/kg LMW-DS): Inhibited
